Laboratory results from ChEMBL document CHEMBL4145551, “Mitochondria-targeting indolizino[3,2-c]quinolines as novel class of photosensitizers for photodynamic anticancer activity” (Eur J Med Chem, 2018).
Activity calls are given as the source filed them. No cut-off for these calls is given here.

Columns and labels:
HeLa [1] = assay: Induction of ROS generation in human HeLa cells preincubated for 1 hr followed by blue LED light irradiation for 15 mins by DHE staining based HCS analysis; assay type: functional, cell-based
[2] = Induction of singlet oxygen production assessed as photodegradation of DPBF by measuring quantum yield after irradiation with 356 nanometer light by UV-Visible spectroscopic analysis; assay type: functional
HeLa [3] = assay: Photocytotoxicity against human HeLa cells assessed as cellular shrinkage up to 10 uM preincubated for 1 hr followed by blue LED light irradiation for 5 mins and measured after 13 hrs by Hoechst 33258 staining based fluorescence microscopic method; assay type: functional, cell-based
MCF7 [4] = assay: Photocytotoxicity against human MCF7 cells assessed as reduction in cell viability preincubated for 1 hr followed blue LED light irradiation for 5 mins and measured after 24 hrs by MTT assay; assay type: functional, cell-based; details: for IC50: MCF7, light or radiation study
HeLa [5] = assay: Photocytotoxicity against human HeLa cells assessed as DNA fragmentation up to 10 uM preincubated for 1 hr followed by blue LED light irradiation for 5 mins and measured after 13 hrs by Hoechst 33258 staining based fluorescence microscopic method; assay type: functional, cell-based
A549 [6] = assay: Photocytotoxicity against human A549 cells assessed as reduction in cell viability preincubated for 1 hr followed blue LED light irradiation for 10 mins and measured after 24 hrs by MTT assay; assay type: functional, cell-based; details: for IC50: A549, light or radiation study
HeLa [7] = assay: Photocytotoxicity against human HeLa cells assessed as plasma membrane blebbing up to 10 uM preincubated for 1 hr followed by blue LED light irradiation for 5 mins and measured after 13 hrs by Hoechst 33258 staining based fluorescence microscopic method; assay type: functional, cell-based
A549 [8] = assay: Photocytotoxicity against human A549 cells assessed as reduction in cell viability preincubated for 1 hr followed blue LED light irradiation for 5 mins and measured after 24 hrs by MTT assay; assay type: functional, cell-based; details: for IC50: A549, light or radiation study
DNA [9] = assay: Induction of Escherichia coli pBR322 DNA cleavage irradiated with blue LED light after 30 mins by agarose gel electrophoresis method; assay type: nucleic-acid assay
MCF7 [10] = assay: Photocytotoxicity against human MCF7 cells assessed as reduction in cell viability preincubated for 1 hr followed blue LED light irradiation for 10 mins and measured after 24 hrs by MTT assay; assay type: functional, cell-based; details: for IC50: MCF7, light or radiation study
HeLa [11] = assay: Photocytotoxicity against human HeLa cells assessed as chromatin condensation up to 10 uM preincubated for 1 hr followed by blue LED light irradiation for 5 mins and measured after 13 hrs by Hoechst 33258 staining based fluorescence microscopic method; assay type: functional, cell-based
[12] = Dark toxicity in human HeLa cells assessed as reduction in cell viability up to 10 uM measured after 24 hrs by MTT assay; assay type: cell-based
DNA [13] = assay: Induction of Escherichia coli pBR322 DNA cleavage at 20 uM after 30 mins under dark condition by agarose gel electrophoresis method; assay type: nucleic-acid assay; details: 0.5 h
[14] = Dark toxicity in human MCF7 cells assessed as reduction in cell viability up to 10 uM measured after 24 hrs by MTT assay; assay type: cell-based; details: mcf7, 24 h
HeLa [15] = assay: Photocytotoxicity against human HeLa cells assessed as reduction in cell viability preincubated for 1 hr followed blue LED light irradiation for 5 mins and measured after 24 hrs by MTT assay; assay type: functional, cell-based; details: for IC50: light or radiation study
HeLa [16] = assay: Photocytotoxicity against human HeLa cells assessed as reduction in cell viability preincubated for 1 hr followed blue LED light irradiation for 10 mins and measured after 24 hrs by MTT assay; assay type: functional, cell-based; details: for IC50: light or radiation study
[17] = Dark toxicity in human A549 cells assessed as reduction in cell viability up to 10 uM measured after 24 hrs by MTT assay; assay type: cell-based; details: a549, 24 h
HeLa [18] = assay: Photocytotoxicity against human HeLa cells assessed as reduction in cell viability at 2 uM preincubated for 1 hr followed blue LED light irradiation for 5 mins and measured after 24 hrs in presence of singlet oxygen scavenger histidine by MTT assay; assay type: functional, cell-based
HeLa [19] = assay: Photocytotoxicity against human HeLa cells assessed as morphological changes at 5 uM preincubated for 1 hr followed by blue LED light irradiation for 10 mins and measured after 2.5 hrs by holotomographic method; assay type: functional, cell-based
HeLa [20] = assay: Photocytotoxicity against human HeLa cells assessed as cell death at 0.5 uM preincubated for 1 hr followed blue LED light irradiation for 5 mins and measured after 24 hrs by MTT assay relative to control; assay type: functional
[21] = Drug uptake in human HeLa cell mitochondria at 10 uM after 1 hr by mitotracker red staining based confocal laser scanning microscopic method; assay type: ADME
DNA [22] = assay: Induction of Escherichia coli pBR322 DNA cleavage at 20 uM irradiated with blue LED light after 30 mins in presence of singlet oxygen scavenger sodium azide by agarose gel electrophoresis method; assay type: nucleic-acid assay
DNA [23] = assay: Induction of Escherichia coli pBR322 DNA cleavage at 20 uM irradiated with blue LED light after 30 mins in presence of H2O2 scavenger KI by agarose gel electrophoresis method; assay type: nucleic-acid assay
HeLa [24] = assay: Photocytotoxicity against human HeLa cells assessed as cell membrane blebbing at 10 uM preincubated for 1 hr followed by blue LED light irradiation for 5 mins by differential interference contrast imaging analysis; assay type: functional, cell-based
HeLa [25] = assay: Photocytotoxicity against human HeLa cells assessed as induction of mitochondrial membrane potential depolarization at 10 uM preincubated for 1 hr followed by blue LED light irradiation for 5 mins by TMRE staining based confocal microscopic method; assay type: functional, cell-based
DNA [26] = assay: Induction of Escherichia coli pBR322 DNA cleavage at 20 uM irradiated with blue LED light after 30 mins in presence of hydroxyl radical scavenger mannitol by agarose gel electrophoresis method; assay type: nucleic-acid assay
MCF7 [27] = assay: Photocytotoxicity against human MCF7 cells assessed as induction of mitochondrial membrane potential depolarization at 10 uM preincubated for 1 hr followed by blue LED light irradiation for 5 mins by TMRE staining based confocal microscopic method; assay type: functional, cell-based

SMILES | Activity (HeLa [1]) | Activity [2] | Activity (HeLa [3]) | Activity (MCF7 [4]) | IC50 (MCF7 [4]) | Activity (HeLa [5]) | Activity (A549 [6]) | IC50 (A549 [6]) | Activity (HeLa [7]) | Activity (A549 [8]) | IC50 (A549 [8]) | Activity (MCF7 [10]) | IC50 (MCF7 [10]) | Activity (HeLa [11]) | Activity [12] | Activity (DNA [13]) | Activity [14] | Activity (HeLa [15]) | IC50 (HeLa [15]) | Activity (HeLa [16]) | also measured
Brc1ccc2cc3c4ccccc4nc(-c4ccco4)c3n2c1 | Dose-dependent effect | 0.6 | Active | Dose-dependent effect | 1.33 µM | Active | Dose-dependent effect | 1.59 µM | Active | Dose-dependent effect | 2.16 µM | Dose-dependent effect | 0.83 µM | Active | Toxic | Non-Toxic | Toxic | Dose-dependent effect | 1.14 µM | Dose-dependent effect | Activity (DNA [9]): Dose-dependent effect; IC50 (HeLa [16]): 0.81 µM; Activity [17]: Toxic
c1csc(-c2nc3ccccc3c3cc4ccccn4c23)c1 | Dose-dependent effect | 0.4 | Active | Dose-dependent effect | 3.46 µM | Active | Dose-dependent effect | 1.99 µM | Active | Dose-dependent effect | 4.15 µM | Dose-dependent effect | 1.55 µM | Active | Non-Toxic | Non-Toxic | Non-Toxic | Dose-dependent effect | 1.45 µM | Dose-dependent effect | Activity (DNA [9]): Dose-dependent effect; Activity (HeLa [18]): inactive; IC50 (HeLa [16]): 0.63 µM; Activity [17]: Non-Toxic
Cc1cccn2c1cc1c3ccccc3nc(-c3ccc(Cl)o3)c12 | Dose-dependent effect | 0.38 | Active | Dose-dependent effect | 0.93 µM | Active | Dose-dependent effect | 1.13 µM | Active | Dose-dependent effect | 1.43 µM | Dose-dependent effect | 0.62 µM | Active | Non-Toxic | Non-Toxic | Non-Toxic | Dose-dependent effect | 3.51 µM | Dose-dependent effect | IC50 (HeLa [16]): 2.07 µM; Activity [17]: Non-Toxic
Clc1ccc(-c2nc3ccccc3c3cc4ccccn4c23)s1 | Dose-dependent effect | 0.47 | Active | Dose-dependent effect | 1.68 µM | Active | Dose-dependent effect | 1.03 µM | Active | Dose-dependent effect | 1.33 µM | Dose-dependent effect | 1.04 µM | Active | Non-Toxic | Non-Toxic | Non-Toxic | Dose-dependent effect | 0.49 µM | Dose-dependent effect | Activity (HeLa [19]): Active; Activity (HeLa [20]): >50%; IC50 (HeLa [16]): 0.41 µM; Activity [17]: Non-Toxic
Cc1cccn2c1cc1c3ccccc3nc(-c3cccs3)c12 | Dose-dependent effect | 0.42 | Active | Dose-dependent effect | 2.68 µM | Active | Dose-dependent effect | 1.99 µM | Active | Dose-dependent effect | 3.38 µM | Dose-dependent effect | 1.39 µM | Active | Non-Toxic | Non-Toxic | Non-Toxic | Dose-dependent effect | 1.17 µM | Dose-dependent effect | Drug uptake [21]: Active; Activity (DNA [22]): inactive; Activity (DNA [23]): inactive; Activity (DNA [9]): Dose-dependent effect; Activity (HeLa [24]): Active; Activity (HeLa [25]): Active; Activity (DNA [26]): Active; Activity (HeLa [18]): inactive; Activity (MCF7 [27]): Active; IC50 (HeLa [16]): 0.55 µM; Activity [17]: Non-Toxic
